Reference: patent publication US20050192371A1, “Preparation and use of photopolymerized microparticles” (priority 1998, published 2005)

Columns and labels:
[1] = Drug release / degradation of PMSA microparticles in phosphate-buffered saline; type: physicochemical; conditions: FIG. 13; tacrine absorbance at 322 nm, Rose Bengal at 550 nm
Method: The centrifuge tube was shaken to disperse the particles throughout the solution and placed in a 37° C. temperature bath for 3 minutes. The tube was then immediately centrifuged, and the buffer was drawn off and analyzed for drug concentration. The centrifuge tube was refilled with 37° C. PBS, and the cycle was repeated for about 3 hours. The tubes remained in the temperature bath for 3 minutes for the first hour, and 5-10 minutes for the remainder of the time data was collected. UV-Vis spectrophotrometry (Model 8452, Hewlett Packard) was used to determine the concentration of tacrine (absorbance was measured at 322 nm) in experiment samples.
Drug release experiments illustrate the release properties of the microparticles formed in the photopolymerization PCA process. […] The Rose Bengal release profile is also affected by photobleaching of particles in room light. This may explain the lag time at the beginning of the Rose Bengal release in FIG. 13.

[2] = Release of Rose Bengal from MSA disks versus mass fraction degraded; type: physicochemical; conditions: FIG. 14; homogeneous and heterogeneous MSA disks, 10 ml PBS, 37° C., absorbance 550 nm
Description: Crosslinked particles containing Rose Bengal were incorporated in a MSA matrix and polymerized into disks. Rose Bengal was also homogeneously incorporated into another set of MSA disks and polymerized. Advantages of using a particle-polymer composite include multi-mode degradation and release possible through the use of different biocompatible polymers and drugs, ease of control of surface degradation, and in one particular application, bone growth is facilitated by the resulting porous structures.
Disk samples were 0.25 to 0.3 grams, 13 mm diameter and 1.5 mm thick. Disks were placed in 10 ml of PBS buffer at 37° C. to monitor the degradation.
The absorbance of Rose Bengal was measured at 550 nm, and the disks were weighed to monitor the degradation.

SMILES | release profile from PMSA particles into PBS buffer [1] | release behavior as a function of the mass fraction of the disks degraded [2]
O=C([O-])c1c(Cl)c(Cl)c(Cl)c(Cl)c1-c1c2cc(I)c(=O)c(I)c-2oc2c(I)c([O-])c(I)cc12.[Na+].[Na+] [Rose Bengal] | some influence of diffusion in the release | linear relationship between degradation and release
Nc1c2c(nc3ccccc13)CCCC2 [tacrine, 9-amino-1,2,3,4-tetrahydroacridine] | follows the curve for surface erosion of a sphere | –
